Measurements as given in PubChem BioAssay (NCI).
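In this assay, cells in 96-well plates receive the compound at five concentrations for 48 hours. Endpoints are linearly interpolated between the surrounding concentrations. GI50 = concentration required for 50% inhibition of growth. TGI marks complete inhibition of growth.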

Legend:
Experiment in all cases: NCI anticancer screen, dose series, 48 h; in the data active = GI50 below about 0.43 µM; inactive = the rest
[1] = tested on: SK-MEL-2 melanoma
[2] = tested on: UO-31 renal
[3] = tested on: HOP-62 NSCLC
[4] = tested on: OVCAR-5 ovarian
[5] = tested on: SN12C renal
[6] = tested on: HL-60(TB) leukemia
[7] = tested on: CCRF-CEM leukemia
[8] = tested on: HCT-116 colon
[9] = tested on: TK-10 renal
[10] = tested on: M14 melanoma
[11] = tested on: COLO 205 colon
[12] = tested on: SW-620 colon
[13] = tested on: MOLT-4 leukemia
[14] = tested on: MALME-3M melanoma
[15] = tested on: HS 578T breast
[16] = tested on: T-47D breast
[17] = tested on: OVCAR-8 ovarian
[18] = tested on: SF-268 CNS
[19] = tested on: OVCAR-4 ovarian
[20] = tested on: SF-539 CNS
[21] = tested on: SK-OV-3 ovarian
[22] = tested on: LOX IMVI melanoma
[23] = tested on: K-562 leukemia
[24] = tested on: MCF7 breast
[25] = tested on: KM12 colon
[26] = tested on: NCI/ADR-RES ovarian
[27] = tested on: MDA-MB-231 breast
[28] = tested on: U251 CNS
[29] = tested on: SNB-75 CNS
[30] = tested on: UACC-257 melanoma
[31] = tested on: NCI-H23 lung
[32] = tested on: SF-295 CNS
[33] = tested on: PC-3 prostate
[34] = tested on: A498 renal
[35] = tested on: DU-145 prostate
[36] = tested on: EKVX NSCLC
[37] = tested on: SK-MEL-5 melanoma
[38] = tested on: 786-0 renal
[39] = tested on: NCI-H522 lung
[40] = tested on: SR leukemia
[41] = tested on: HCT-15 colon
[42] = tested on: NCI-H460 lung
[43] = tested on: UACC-62 melanoma
[44] = tested on: SNB-19 CNS
[45] = tested on: MDA-MB-435
[46] = tested on: CAKI-1 renal
[47] = tested on: ACHN renal
[48] = tested on: SK-MEL-28 melanoma
[49] = tested on: BT-549 breast
[50] = tested on: NCI-H226 lung
[51] = tested on: HCC-2998 colon
[52] = tested on: HT29 colon
[53] = tested on: OVCAR-3 ovarian
[54] = tested on: RPMI-8226 leukemia
[55] = tested on: A549 NSCLC
[56] = tested on: HOP-92 NSCLC
[57] = tested on: IGROV1 ovarian

O=C(O)c1ccc2nc(-c3ccc(OCCCCCOc4ccc(-c5nc6ccc(C(=O)O)cc6[nH]5)cc4)cc3)[nH]c2c1
48.6 µM: TGI [40]
> 100 µM: TGI [1] | TGI [2] | TGI [3] | TGI [4] | TGI [5] | TGI [6] | TGI [8] | TGI [9] | TGI [10] | TGI [11] | TGI [12] | TGI [13] | TGI [14] | TGI [15] | TGI [16] | TGI [17] | TGI [18] | TGI [19] | TGI [20] | TGI [21] | TGI [22] | TGI [23] | TGI [24] | TGI [25] | TGI [26] | TGI [27] | TGI [28] | TGI [29] | TGI [30] | TGI [31] | TGI [32] | TGI [33] | TGI [34] | TGI [35] | TGI [36] | TGI [37] | TGI [38] | TGI [39] | TGI [41] | TGI [42] | TGI [43] | TGI [44] | TGI [45] | TGI [46] | TGI [47] | TGI [48] | TGI [49] | TGI [50] | TGI [51] | TGI [52] | TGI [53]
inactive: GI50 [1] > 100 µM | GI50 [2] > 100 µM | GI50 [3] > 100 µM | GI50 [4] > 100 µM | GI50 [5] > 100 µM | GI50 [6] > 100 µM | GI50 [7] 18.8 µM | GI50 [8] > 100 µM | GI50 [9] > 100 µM | GI50 [10] > 100 µM | GI50 [11] > 100 µM | GI50 [12] > 100 µM | GI50 [13] 29.7 µM | GI50 [14] > 100 µM | GI50 [15] > 100 µM | GI50 [16] > 100 µM | GI50 [17] > 100 µM | GI50 [18] > 100 µM | GI50 [19] > 100 µM | GI50 [20] > 100 µM | GI50 [21] > 100 µM | GI50 [22] > 100 µM | GI50 [23] 22.3 µM | GI50 [24] > 100 µM | GI50 [25] > 100 µM | GI50 [26] > 100 µM | GI50 [27] > 100 µM | GI50 [28] > 100 µM | GI50 [29] > 100 µM | GI50 [30] > 100 µM | GI50 [31] > 100 µM | GI50 [32] > 100 µM | GI50 [33] > 100 µM | GI50 [34] > 100 µM | GI50 [35] > 100 µM | GI50 [36] > 100 µM | GI50 [37] > 100 µM | GI50 [38] > 100 µM | GI50 [39] > 100 µM | GI50 [40] 22.3 µM | GI50 [41] > 100 µM | GI50 [42] > 100 µM | GI50 [43] > 100 µM | GI50 [44] > 100 µM | GI50 [45] > 100 µM | GI50 [46] > 100 µM | GI50 [47] > 100 µM | GI50 [48] > 100 µM | GI50 [49] > 100 µM | GI50 [50] > 100 µM | GI50 [51] > 100 µM | GI50 [52] > 100 µM | GI50 [53] > 100 µM
44.2 µM: TGI [7]

COc1ccc(CN(Cc2ccc(OC)cc2)C(=O)CC2(O)CCc3ccccc3C2)cc1 (configuration not stated)
56 µM: TGI [13]
> 100 µM: TGI [54] | TGI [1] | TGI [2] | TGI [3] | TGI [4] | TGI [5] | TGI [7] | TGI [8] | TGI [9] | TGI [10] | TGI [12] | TGI [14] | TGI [15] | TGI [16] | TGI [17] | TGI [19] | TGI [20] | TGI [21] | TGI [22] | TGI [23] | TGI [24] | TGI [25] | TGI [26] | TGI [27] | TGI [28] | TGI [29] | TGI [55] | TGI [30] | TGI [31] | TGI [32] | TGI [33] | TGI [34] | TGI [35] | TGI [36] | TGI [56] | TGI [37] | TGI [38] | TGI [39] | TGI [40] | TGI [41] | TGI [42] | TGI [43] | TGI [44] | TGI [45] | TGI [46] | TGI [47] | TGI [57] | TGI [48] | TGI [49] | TGI [50] | TGI [51] | TGI [52] | TGI [53]
57.4 µM: TGI [11]
80.1 µM: TGI [6]
